Data as given in BigSolDB 2.1.

Cc1ccc(S(C)(=O)=O)cc1
solubility (mole fraction)
Conditions | in DMF | in acetone | in acetonitrile | in ethanol | in ethyl acetate | in isopropanol | in methanol | in n-butanol | in n-propanol
278.15 K | 0.123 | 0.0999 | 0.084 | 0.00721 | 0.0611 | 0.00415 | 0.0111 | 0.00408 | 0.00596
283.15 K | 0.146 | 0.118 | 0.102 | 0.00993 | 0.0732 | 0.00579 | 0.0153 | 0.00599 | 0.00839
288.15 K | 0.177 | 0.144 | 0.13 | 0.0137 | 0.0872 | 0.008 | 0.0207 | 0.00869 | 0.012
293.15 K | 0.208 | 0.172 | 0.155 | 0.018 | 0.103 | 0.011 | 0.0282 | 0.0125 | 0.016
298.15 K | 0.244 | 0.199 | 0.183 | 0.0241 | 0.123 | 0.0149 | 0.0376 | 0.0178 | 0.022
303.15 K | 0.282 | 0.234 | 0.218 | 0.0321 | 0.144 | 0.0203 | 0.05 | 0.0252 | 0.03
308.15 K | 0.332 | 0.274 | 0.258 | 0.042 | 0.171 | 0.0275 | 0.0657 | 0.0353 | 0.04
313.15 K | 0.389 | 0.322 | 0.3 | 0.055 | 0.203 | 0.0367 | 0.0858 | 0.0492 | 0.052
318.15 K | 0.45 | 0.379 | 0.359 | 0.0712 | 0.236 | 0.0491 | 0.111 | 0.0681 | 0.069
